Source: paper PMC10287695, “Non-covalent inhibitors of thioredoxin glutathione reductase with schistosomicidal activity in vivo” (Nature Communications, 2023)
Several values for one entry are separate records, joined by “and”; a condition that tells them apart may be missing. Equal entries are not always repeated. Entries after “also recorded” stand apart in the source; their conditions may differ. Where two headings read alike, the source gives them in different places.

Legend:
[1] = Reactivity with GSH or N-Boc protected methyl ester of selenocysteine (LCMS); assay type: physicochemical; details: up to 120 h
Description: Dimethyl bis(N-tert-butoxycarbonyl)-L-selenocystine was synthesized as reported previously. (N-tert-butoxycarbonyl)-L-selenocysteine methyl ester was prepared in situ[86] in methanol or phosphate buffer. Compound 2 was added to the solution of (N-tert-butoxycarbonyl)-L-selenocysteine methyl ester in either methanol or phosphate buffer and incubated for 40 min, 24 h, and 120 h under N2 gas balloon. Additional amounts of NaBH4 were added at 12 h and 96 h to maintain the reducing conditions. Aliquots taken from methanol solution at each of the time points were concentrated in vacuo, mixed with water, and extracted with ethyl acetate. The organic layer was separated, concentrated in vacuo, re-dissolved in methanol and analyzed by LCMS. Aliquots taken from the phosphate buffer solution were extracted with ethyl acetate. The resulting organic layer was separated and concentrated in vacuo. The residue was re-dissolved in methanol and analyzed by LCMS. […] No additional spots were detected by TLC as well.
Covalent TGR inhibitor TRi-1 was used as a positive control for the reaction with (N-tert-butoxycarbonyl)-L-selenocysteine methyl ester. The reactivity of TRi-1 was tested similarly as described above for compound 2.

S. mansoni NTS = test: Phenotypic assessment of PZQ activity on NTS; assay type: cell-based; details: for % Effect, single replicates I, II, III / % Effect / NTS phenotypic score, Mean / IC50: 24 hour exposure; for % Effect: from mean score, 100 - Average (Test) x 100 / Average (Control); for NTS phenotypic score, Mean: score 3 (motile) to 0 (dead); for IC50: NTS phenotypic scoring
Description: About 200 NTS incubated at 37 °C in a 5% CO2 incubator overnight were exposed to different concentrations of PZQ (1, 5, 10, 20, 30, 40 and 50 µM) and control without treatment for 24 h in triplicate. Worm images were acquired using Keyence BZ-X800 microscope and PZQ activity evaluated phenotypically. NTS viability was assessed by scoring worms based on morphological changes and motility. Viability scores of 3 = motile, no changes to morphology and transparency, 2 = reduced motility and/or some damage to tegument as well as reduced transparency and increased granularity, 1 = severe reduction of motility and/or damage to tegument with high opacity and high granularity, and 0 = dead.

[2] = tested on: S. mansoni juvenile worms; set-up: method as in PMID 15013742; details: cited from earlier work
adult worms = tested on: adult worms; set-up: method as in PMID 15013742; details: overnight exposure followed by 8 days culture; cited from earlier work
juvenile worms in mice = details: cited from earlier work

## CCc1ccccc1-c1nc(CN[C@@H]2C[C@@H]3C[C@H]([C@H]2C)C3(C)C)c(C)o1 [Compound 2]
[1]
  reaction with thiol or selenol groups in GSH or protected selenocysteine: No additional peaks were detected; also recorded: no reaction

## O=C(C1CCCCC1)N1CC(=O)N2CCc3ccccc3C2C1 (stereo not shown) [PZQ, praziquantel]
S. mansoni NTS; 10 µM
  % Effect, single replicates I, II, III: 9.401% and 12.151% and 16.3217%
  % Effect: 12.6338%
S. mansoni NTS; 10 µM, mean of 3 replicates
  NTS phenotypic score, Mean: 2.613
S. mansoni NTS; 20 µM
  % Effect, single replicates I, II, III: 15.8245% and 13.8003% and 19.4239%
  % Effect: 16.3511%
S. mansoni NTS; 20 µM, mean of 3 replicates
  NTS phenotypic score, Mean: 2.502
S. mansoni NTS; 30 µM
  % Effect, single replicates I, II, III: 25.0655% and 24.6184% and 29.7619%
  % Effect: 26.486%
S. mansoni NTS; 30 µM, mean of 3 replicates
  NTS phenotypic score, Mean: 2.199
S. mansoni NTS; 40 µM
  % Effect, single replicates I, II, III: 41.1572% and 48.5123% and 41.922%
  % Effect: 43.8717%
S. mansoni NTS; 40 µM, mean of 3 replicates
  NTS phenotypic score, Mean: 1.679
S. mansoni NTS; 50 µM
  % Effect, single replicates I, II, III: 60.2247% and 58.8296% and 61.8051%
  % Effect: 60.2866%
S. mansoni NTS; 50 µM, mean of 3 replicates
  NTS phenotypic score, Mean: 1.188
S. mansoni NTS; 24 h exposure
  LD50 for NTS, phenotypic analysis: 42.9 ± 0.83 µM
S. mansoni NTS; FORECAST interpolation, read-out: IC50, single replicates I, II, III
  IC50: 42.6 µM and 42.3 µM
S. mansoni NTS; Schistosoma mansoni, 24 h, FORECAST interpolation, read-out: IC50, single replicates I, II, III
  IC50: 43.9 µM
S. mansoni NTS; Schistosoma mansoni, 24 h, mean of 3 replicates, read-out: IC50, Mean
  IC50: 42.9 µM
[2]
  LD50 of PZQ against ex vivo S. mansoni juvenile worms: 413 µM
Adult worms
  LD50 against adult worms, female: 5.1 µM
  LD50 against adult worms, male: 1.5 µM
Juvenile worms in mice; mice, 500 mg/kg, 21 d.p.i.
  reduction in worm burden: 0%
Juvenile worms in mice; mice, 500 mg/kg, 28 d.p.i.
  reduction in worm burden: 0%
Juvenile worms in mice; mice, 1,000 mg/kg, 21 d.p.i.
  reduction in worm burden: 50%
Juvenile worms in mice; mice, 1,000 mg/kg, 28 d.p.i.
  reduction in worm burden: 17%
Juvenile worms in mice; mice, doses titrated 28 d.p.i.
  ED50: 2,456 mg/kg
